Values quoted from earlier work as cited in patent EP1204793B1, “STABLE SILICONE OIL EMULSION COMPOSITION, ARTICLE OF MANUFACTURE, AND METHOD OF FABRIC WRINKLE CONTROL” (THE PROCTER & GAMBLE COMPANY, priority 1999, dated 2001).
Counter-ions that a name gives are not always drawn.

solubility in water	SMILES
about 1.8%	[H]/N=C(\N/C(=N/[H])NCCCCCCNC(=N)NC(=N)Nc1ccc(Cl)cc1)Nc1ccc(Cl)cc1 [diacetate salt, 1,1'-hexamethylene bis(5-(p-chlorophenyl)biguanide)]
about 70%	[H]/N=C(\N/C(=N/[H])NCCCCCCNC(=N)NC(=N)Nc1ccc(Cl)cc1)Nc1ccc(Cl)cc1 [digluconate salt, 1,1'-hexamethylene bis(5-(p-chlorophenyl)biguanide)]
